Laboratory results reported in the NIST ThermoML archive (doi:10.1021/je9010568).

Assay: φn = volume fraction of the nth substance listed
Details: Liquid

OCCO [1,2-ethanediol] + O
φ1 = 0.75
Details	specific volume [m3/kg]
273.15 K, 100 kPa, Vibrating tube method	0.0009024
274.15 K, 100 kPa, Vibrating tube method	0.0009029
275.15 K, 100 kPa, Vibrating tube method	0.0009035
276.15 K, 100 kPa, Vibrating tube method	0.000904
277.15 K, 100 kPa, Vibrating tube method	0.0009045
278.15 K, 100 kPa, Vibrating tube method	0.0009051
279.15 K, 100 kPa, Vibrating tube method	0.0009056
280.15 K, 100 kPa, Vibrating tube method	0.0009061
281.15 K, 100 kPa, Vibrating tube method	0.0009067
282.15 K, 100 kPa, Vibrating tube method	0.0009072
283.16 K, 100 kPa, Vibrating tube method	0.0009078
284.16 K, 100 kPa, Vibrating tube method	0.0009083
285.16 K, 100 kPa, Vibrating tube method	0.0009088
286.16 K, 100 kPa, Vibrating tube method	0.0009094
287.16 K, 100 kPa, Vibrating tube method	0.0009099
288.09 K, 100 kPa, Vibrating tube method	0.0009104
288.09 K, 148600 kPa, Bellows volumetry	0.0008753
288.1 K, 98200 kPa, Bellows volumetry	0.0008859
288.11 K, 100 kPa, Vibrating tube method	0.0009104
288.11 K, 49700 kPa, Bellows volumetry	0.0008965
288.12 K, 98200 kPa, Bellows volumetry	0.0008844
288.13 K, 100 kPa, Vibrating tube method	0.0009105
288.13 K, 49400 kPa, Bellows volumetry	0.0008974
288.13 K, 349300 kPa, Bellows volumetry	0.0008385
288.14 K, 149800 kPa, Bellows volumetry	0.0008734
288.14 K, 199000 kPa, Bellows volumetry	0.0008635
288.15 K, 199100 kPa, Bellows volumetry	0.0008654
288.16 K, 100 kPa, Vibrating tube method	0.0009105
288.16 K, 248700 kPa, Bellows volumetry	0.0008558
288.17 K, 299900 kPa, Bellows volumetry	0.0008461
288.19 K, 250600 kPa, Bellows volumetry	0.0008544
288.29 K, 299600 kPa, Bellows volumetry	0.0008463
288.31 K, 199200 kPa, Bellows volumetry	0.0008639
288.31 K, 350200 kPa, Bellows volumetry	0.0008386
288.32 K, 251000 kPa, Bellows volumetry	0.0008545
288.33 K, 49300 kPa, Bellows volumetry	0.0008968
288.33 K, 149300 kPa, Bellows volumetry	0.0008737
288.33 K, 300300 kPa, Bellows volumetry	0.0008464
288.33 K, 348300 kPa, Bellows volumetry	0.0008391
288.36 K, 100900 kPa, Bellows volumetry	0.0008842
289.16 K, 100 kPa, Vibrating tube method	0.000911
290.16 K, 100 kPa, Vibrating tube method	0.0009116
291.16 K, 100 kPa, Vibrating tube method	0.0009121
292.15 K, 100 kPa, Vibrating tube method	0.0009127
293.15 K, 100 kPa, Vibrating tube method	0.0009132
294.15 K, 100 kPa, Vibrating tube method	0.0009138
295.16 K, 100 kPa, Vibrating tube method	0.0009143
296.16 K, 100 kPa, Vibrating tube method	0.0009149
297.15 K, 100 kPa, Vibrating tube method	0.0009155
298.15 K, 100 kPa, Vibrating tube method	0.000916
299.15 K, 100 kPa, Vibrating tube method	0.0009166
300.16 K, 100 kPa, Vibrating tube method	0.0009172
301.16 K, 100 kPa, Vibrating tube method	0.0009177
302.16 K, 100 kPa, Vibrating tube method	0.0009183
303.16 K, 100 kPa, Vibrating tube method	0.0009189
304.16 K, 100 kPa, Vibrating tube method	0.0009195
305.16 K, 100 kPa, Vibrating tube method	0.00092
306.16 K, 100 kPa, Vibrating tube method	0.0009206
307.15 K, 100 kPa, Vibrating tube method	0.0009212
308.15 K, 100 kPa, Vibrating tube method	0.0009218
309.15 K, 100 kPa, Vibrating tube method	0.0009223
310.15 K, 100 kPa, Vibrating tube method	0.0009229
311.15 K, 100 kPa, Vibrating tube method	0.0009235
312.15 K, 100 kPa, Vibrating tube method	0.0009241
313.15 K, 100 kPa, Vibrating tube method	0.0009247

CC(O)CO (centres undefined) [1,2-propanediol] + O
φ1 = 0.55
Details	specific volume [m3/kg]
273.15 K, 100 kPa, Vibrating tube method	0.0009499
274.15 K, 100 kPa, Vibrating tube method	0.0009505
275.15 K, 100 kPa, Vibrating tube method	0.000951
276.15 K, 100 kPa, Vibrating tube method	0.0009516
277.15 K, 100 kPa, Vibrating tube method	0.0009521
278.15 K, 100 kPa, Vibrating tube method	0.0009527
279.15 K, 100 kPa, Vibrating tube method	0.0009533
280.15 K, 100 kPa, Vibrating tube method	0.0009539
281.15 K, 100 kPa, Vibrating tube method	0.0009544
282.15 K, 100 kPa, Vibrating tube method	0.000955
283.15 K, 100 kPa, Vibrating tube method	0.0009556
284.15 K, 100 kPa, Vibrating tube method	0.0009562
285.16 K, 100 kPa, Vibrating tube method	0.0009568
286.16 K, 100 kPa, Vibrating tube method	0.0009574
287.16 K, 100 kPa, Vibrating tube method	0.0009579
287.99 K, 198800 kPa, Bellows volumetry	0.0009078
288 K, 100100 kPa, Bellows volumetry	0.0009305
288.03 K, 49500 kPa, Bellows volumetry	0.0009439
288.04 K, 148900 kPa, Bellows volumetry	0.0009188
288.11 K, 248600 kPa, Bellows volumetry	0.0008977
288.11 K, 298400 kPa, Bellows volumetry	0.0008885
288.12 K, 49600 kPa, Bellows volumetry	0.0009432
288.12 K, 198700 kPa, Bellows volumetry	0.000907
288.12 K, 348400 kPa, Bellows volumetry	0.0008794
288.13 K, 100 kPa, Vibrating tube method	0.0009585
288.13 K, 98100 kPa, Bellows volumetry	0.0009301
288.13 K, 148600 kPa, Bellows volumetry	0.0009182
288.16 K, 100 kPa, Vibrating tube method	0.0009585
288.22 K, 249300 kPa, Bellows volumetry	0.000897
288.3 K, 100900 kPa, Bellows volumetry	0.0009295
288.31 K, 149300 kPa, Bellows volumetry	0.0009178
288.31 K, 201100 kPa, Bellows volumetry	0.0009066
288.31 K, 300500 kPa, Bellows volumetry	0.0008875
288.31 K, 348700 kPa, Bellows volumetry	0.0008793
288.32 K, 100 kPa, Vibrating tube method	0.0009586
288.33 K, 49800 kPa, Bellows volumetry	0.0009434
288.33 K, 249400 kPa, Bellows volumetry	0.0008969
288.35 K, 350000 kPa, Bellows volumetry	0.0008796
288.36 K, 299200 kPa, Bellows volumetry	0.0008882
289.16 K, 100 kPa, Vibrating tube method	0.0009591
290.16 K, 100 kPa, Vibrating tube method	0.0009597
291.15 K, 100 kPa, Vibrating tube method	0.0009603
292.15 K, 100 kPa, Vibrating tube method	0.000961
293.15 K, 100 kPa, Vibrating tube method	0.0009616
294.15 K, 100 kPa, Vibrating tube method	0.0009622
295.15 K, 100 kPa, Vibrating tube method	0.0009628
296.16 K, 100 kPa, Vibrating tube method	0.0009634
297.16 K, 100 kPa, Vibrating tube method	0.0009641
298.16 K, 100 kPa, Vibrating tube method	0.0009647
299.16 K, 100 kPa, Vibrating tube method	0.0009653
300.16 K, 100 kPa, Vibrating tube method	0.000966
301.16 K, 100 kPa, Vibrating tube method	0.0009666
302.16 K, 100 kPa, Vibrating tube method	0.0009673
303.16 K, 100 kPa, Vibrating tube method	0.0009679
304.16 K, 100 kPa, Vibrating tube method	0.0009685
305.16 K, 100 kPa, Vibrating tube method	0.0009692
306.16 K, 100 kPa, Vibrating tube method	0.0009699
307.15 K, 100 kPa, Vibrating tube method	0.0009705
308.15 K, 100 kPa, Vibrating tube method	0.0009712
309.15 K, 100 kPa, Vibrating tube method	0.0009719
310.15 K, 100 kPa, Vibrating tube method	0.0009725
311.15 K, 100 kPa, Vibrating tube method	0.0009732
312.15 K, 100 kPa, Vibrating tube method	0.0009739
313.15 K, 100 kPa, Vibrating tube method	0.0009746
